The record followed here is patent US7355074B2, “Compounds having aromatic rings and side-chain amide-functionality and a method for transporting monovalent anions across biological membranes using the same” (The University of Maryland, priority 2003, dated 2008).

Each structure is given as a SMILES string.

Data set [1] in a line: intravesicular pH of LUVs experiencing a Cl- gradient (calixarene amides). It is filed as biochemical. As to conditions: NaCl-loaded LUVs in isosmotic Na2SO4 buffer. The protocol: FIG. 8 illustrates changes in intravesicular pH upon addition of calixarene tetrabutylamide and calixarene octabutylamide to NaCl^+ loaded vesicles suspended in a sulfate phosphate buffer (emission of HPTS is used to monitor the pH changes in LUVs). At t=60 s, 20 μL of 500 μM of calixarene tetrabutylamide 2 (top trace) or the octabutylamide 3 (bottom trace) was added to 1.95 mL of a LUV suspension to give 1:100 ligand:lipid molar ratio. At t=500 s, 40 μL of 5% Triton X-100 was added. Intravesicular pH values were obtained as a function of the ratio of HPTS emission intensities at 510 nm, when excited at […]. The calibration was performed by measuring the HPTS emission intensities and the pH values of a […] HPTS solution in 10 mM phosphate buffer containing 100 mM NaCl. The calibration equation obtained (pH=1.1684×log (I0I1)+6.9807, r=0.998, where I0 is the emission intensity with excitation at […]) was used to convert the emission intensities into actual pH values.
The pH reached its maximum 250 s after addition of 2 and held constant until the liposomes were lysed with detergent. […] In effect, compound 2 moves […] along with Cl^− down the chloride gradient, consequently building a pH gradient across the membrane. Therefore, NaCl filled vesicles lose Cl^− and H^+ upon addition of 2 and become more alkaline.
Calcein-Release Assay. Calcein-loaded vesicles (100 μL of the stock solution), filled with a saline phosphate buffer (10 mM sodium phosphate, pH 6.4, […] NaCl), were suspended in 1.85 mL of an isoosmotic phosphate sulfate buffer (10 mM sodium phosphate, pH 6.4^−75 mM (Na2SO4) and placed into a fluorimetric cell. HPTS emission at 510 nm was monitored with excitation wavelengths at 403 and 460 nm simultaneously. During the experiment, 20 μL of a 0-500 μM THF solution of the compound of interest was added through an injection port. Intravesicular pH values were obtained as a function of the ratio of HPTS emission intensities at 510 nm, when excited at 403 and 460 nm. […]

The test system of a further data set is HEK-293 cells. In words: patch-clamp recordings in whole-cell configuration. It is filed as cell-based. The source says: FIG. 11 illustrates voltage clamp recordings in whole cell configuration (HEK-293 cells). (A) Current across membrane after application of calixarene tetrabutylamide 2 at different voltages. From bottom to top, trace denotes currents at −120, −80, −40, 0, 40, 80 and 120 mV, respectively, with saline physiological buffer being used (B) Current across membrane in a sodium glutamate isosmotic-buffer at different voltages. The potential was varied over a range of −120 through +120 mV, with a 40 mV step. (C) Current across membrane in Na2SO4 isosmotic buffer at different voltages. The potential was varied over a range of −120 through +120 mV, with a 40 mV steps. (D) Current across the membrane at +120 mV in application/wash cycle traces from bottom to top denote current in absence of 2, current after first application of 2 (a), following by […] lavage, second application (b), and third application (c). Trace on top denotes current after lavage without application of 2. Baselines of the first and last traces shifted for clarity, saline physiological buffer used.
Electrophysiological Recordings. Patch-Clamp Experiments. HEK 293 cells, plated in […] dishes containing 10 mL of the growth media were maintained at 37° C. with 5% CO2 in the incubator. Growth medium for HEK 293 cells was minimum essential medium supplemented with 10% fetal bovine serum, 100 U mL penicillin and 100 μg/mL streptomycin. Electrophysiological recordings were performed in the whole-cell configuration of the patch-clamp technique using a DAGAN 8900 amplifier (Dagan Corp., Minneapolis, Minn.). The patch electrodes, pulled from borosilicate class capillaries, had resistance of 3-4 MΩ when filled with internal solution containing (in mM): CsCl 110: tetraethylammonium chloride, 20; MgATP. 5:EGTA. 14: HEPES, 20 and titrated to pH 7.4 with CsOH. Approximately 90% of electrode resistance was compensated electronically, so that effective series resistance was less than 1 MΩ. HEK cells were used for experiments 2 to 4 days after plating the cells on the cover sips. Generation of the voltage-clamp protocols and data acquisition were carried out using PCLAMP software (Axon instruments, Inc., Burlingame, Calif.). Sampling frequency was 0.5-2.0 kHz, and current signals were filtered at […] before digitization and storage. All experiments were performed at room temperature (23-25° C.). […] Cells plated on plastic cover slips 915 mm round thermanox, Nunc, Inc., Napierville, Ill.) were transferred to an experimental chamber mounted on the stage of an inverted microscope (Diaphot, Nikon, Nagano, Japan) and were bathed in a solution containing (in mM):NaCl, 137:CaCl2, 2; KCl. 5.4; HEPES, 10; glucose, 10:glucose, 10; MgCl2, 1 (pH 7.4 adjusted with NaOH). The experimental chamber was constantly perfused at a rate of about 1 mL/min with a control bathing solution. In solutions buffered on the cell under recording KCl was omitted and in some experiments NaCl was replaced by isoosmotic amounts of Na2SO4 or Na glutamate. Servo-controlled miniature solenoid valves were used for rapid switching between control and test solutions (delay in solution change was <20 ms). Compound 2 was dissolved in DMSO, and DMSO was added in an equal amount to the control and test solutions.
(The patch-clamp technique gives a direct electrical read-out from membranes.)

As to `CCCCNC(=O)COc1c2cccc1Cc1cccc(c1OCC(=O)NCCCC)Cc1cccc(c1OCC(=O)NCCCC)Cc1cccc(c1OCC(=O)NCCCC)C2` [calix[4]arene tetrabutylamide 2, Calix[4]arene tetrabutylamide], in data set [1], the “change of intravesicular pH / pH gradient formation” value is “rapid increase in intravesicular pH” and the “time to maximum intravesicular pH after addition” value amounted to 250 s. Also, the “lavage time after which the current returned to the baseline” value in the data set with HEK-293 cells (+120 mV) came to 1.5 min. The “cells that responded at +80 mV” value in the data set on HEK-293 cells (NaCl buffer) is listed as 3 of 15. The “damage to the cell membrane” value in the data set on HEK-293 cells (application/wash cycle) is recorded as “did not damage the cell membrane”. For the same compound, in the data set with HEK-293 cells (extracellular application, NaCl buffer), the “holding potential at which current across the cell membrane was caused” value was “+120 mV”. Besides, in the data set on HEK-293 cells (holding potentials between −120 and +120 mV), the “current in isosmotic Na glutamate or Na2SO4 buffer” value is reported as “no current across the membrane”.
